Laboratory results as given in US12358895B2, “Process for manufacture of (S)-N-(3-((2-((4-((1-acetylpyrrolidin-3-yl)(methyl)amino)phenyl)amino)-5-methoxypyrimidin-4-yl)oxy)phenyl)acrylamide, and formulations thereof” (ACEA Therapeutics, Inc., priority 2018, dated 2025).

Legend:
Assay type in all cases: physicochemical
[1] = Aqueous solubility
Text: Therefore, the L-(+)-tartrate salt of Compound A, referred to hereinafter as Compound A L-(+)-tartrate, or Compound A-TA, is especially suited for development and is used in many of the compositions and methods herein.
(§1) The drug substance freebase is a weakly basic compound with a pKa of approximately 5.3. The aqueous solubility of the freebase is pH dependent. […] To enhance the absorption and bioavailability, a tartrate salt (Compound A-TA) was made to enhance the dissolution of the molecule in compositions intended for oral administration.

[2] = pKa of the drug substance freebase
Text: as §1

[3] = Chemical and polymorphic stability of solid forms
[4] = Storage stability of encapsulated Compound A-TA in HDPE bottle with deoxidizer; settings: opaque HDPE bottle, LDPE cap, deoxidizer (PharmaKeep CD20)

| water solubility [1] | aqueous solubility at higher pH [1] | aqueous solubility at higher pH ([1]; listed as freebase) | aqueous solubility at lower pH ([1]; lower pH) | pKa [2] | chemical and polymorphic stability [3] | storage stability at 40° C. and 75% relative humidity ([4]; up to 6 months) | storage stability at 25° C. and 60% relative humidity ([4]; up to 24 months) | Structure (SMILES) |
| --- | --- | --- | --- | --- | --- | --- | --- | --- |
| low water solubility | nearly insoluble | almost insoluble | increases dramatically | ~5.3 | – | – | – | C=CC(=O)Nc1cccc(Oc2nc(Nc3ccc(N(C)[C@H]4CCN(C(C)=O)C4)cc3)ncc2OC)c1 [Compound A, (S)—N-(3-(2-(4-((1-acetylpyrrolidin-3-yl)(methyl)amino)phenylamino)-5-methoxypyrimidin-4-yloxy)phenyl)acrylamide] |
| – | – | – | – | – | high chemical and polymorphic stability | highly stable | highly stable | C=CC(=O)Nc1cccc(Oc2nc(Nc3ccc(N(C)[C@H]4CCN(C(C)=O)C4)cc3)ncc2OC)c1.O=C(O)C(O)C(O)C(=O)O [Compound A-TA, (S)—N-(3-((2-((4-((1-acetylpyrrolidin-3-yl)(methyl)amino)phenyl)amino)-5-methoxypyrimidin-4-yl)oxy)phenyl)acrylamide L-(+)-tartrate dihydrate] |
